Results as given in US20220273196A1, “INGESTIBLE DEVICE AND ASSOCIATED METHODS” (Biora Therapeutics, Inc., priority 2017, published 2022).
“Also recorded” adds a separate entry of the source.

Key:
[1] = Dissolving drug pills or powder in water for spectroscopy samples; format: physicochemical; details: pills or powder (Sigma A5000) in water, 0.1-10% (w/v) samples
From the text: Other test samples included anti-inflammatory drugs, e.g., Ibuprofen and Acetaminophen, dissolved in water. Yet other test samples included microcrystalline cellulose, which can be one primary filler material in anti-inflammatory drugs, dissolved in water. […] The Ibuprofen, Acetaminophen and microcrystalline cellulose samples held by the well plate 700B were used to perform spectroscopy of Ibuprofen, Acetaminophen and microcrystalline cellulose in reflectance mode using Benchtop spectrometers #5, #2 and #3. Further, the Ibuprofen and Acetaminophen samples were siphoned from the well plate 700B and combined into a few cuvettes. […] These Ibuprofen and Acetaminophen samples held by the cuvettes were used to perform spectroscopy of Ibuprofen and Acetaminophen in transmission mode using Benchtop spectrometers #4, #5, #2 and #3.
Some test samples included solutions of Ibuprofen having various concentrations. Ibuprofen powder (Sigma 11892) was dissolved in water directly in cuvettes having an optical path thickness of 10 mm. These solutions had Ibuprofen concentrations varying in the range of 0.1-10% (w/v). Other test samples included solutions of Acetaminophen having various concentrations. Acetaminophen powder (Sigma A5000) was dissolved in water directly in cuvettes having an optical path thickness of 10 mm. […]

[2] = biological target: cyclophilin (Homo sapiens, UniProt P62937); details: cited from earlier work
[3] = test system: murine models of inflammatory bowel disease (IBD); details: numerous murine models; cited from earlier work

Chain of cyclophilin (P62937 whole entry): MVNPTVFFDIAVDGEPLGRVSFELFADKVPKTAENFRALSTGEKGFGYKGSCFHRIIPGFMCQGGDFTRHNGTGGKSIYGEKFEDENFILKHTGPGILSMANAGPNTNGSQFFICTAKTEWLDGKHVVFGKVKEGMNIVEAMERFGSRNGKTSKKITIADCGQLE

Compound: CC(=O)Nc1ccc(O)cc1 [Acetaminophen]
- solubility in water [1]: limited solubility in water; also recorded: poor solubility

Compound: C=C/C=C/C[C@@H](C)[C@@H](O)[C@H]1C(=O)N[C@@H](CC)C(=O)N(C)CC(=O)N(C)[C@@H](CC(C)C)C(=O)N[C@@H](C(C)C)C(=O)N(C)[C@@H](CC(C)C)C(=O)N[C@@H](C)C(=O)N[C@H](C)C(=O)N(C)[C@@H](CC(C)C)C(=O)N(C)[C@@H](CC(C)C)C(=O)N(C)[C@@H](C(C)C)C(=O)N1C [voclosporin]
- binding affinity for cyclophilin relative to cyclosporine A [2]: comparable

Compound: L-glutamic acid polymer with L-alanine, L-lysine and L-tyrosine, acetate (salt) [Glatiramer acetate]
- effect on inflammation and pathological manifestations of IBD [3]: reduce inflammation and ameliorate the pathological manifestations
